pIC50: −log10 of the molar value.
Tests used:
[1] = molecular target: HCoV-229E 3CLpro (Human coronavirus 229E, UniProt P0C6X1); assay: HCoV-229E 3CLpro inhibition assay (FRET); assay type: biochemical
[2] = molecular target: SARS-CoV 3CLpro (Severe acute respiratory syndrome coronavirus, UniProt P0C6X7); assay: biochemical
[3] = molecular target: SARS-CoV-2 3CLpro (Severe acute respiratory syndrome coronavirus 2, UniProt P0DTD1); assay: biochemical
[4] = molecular target: MERS-CoV 3CLpro (Middle East respiratory syndrome-related coronavirus, UniProt K9N7C7); assay: biochemical
MERS-CoV 3CLpro, sequence (K9N7C7 3248-3553): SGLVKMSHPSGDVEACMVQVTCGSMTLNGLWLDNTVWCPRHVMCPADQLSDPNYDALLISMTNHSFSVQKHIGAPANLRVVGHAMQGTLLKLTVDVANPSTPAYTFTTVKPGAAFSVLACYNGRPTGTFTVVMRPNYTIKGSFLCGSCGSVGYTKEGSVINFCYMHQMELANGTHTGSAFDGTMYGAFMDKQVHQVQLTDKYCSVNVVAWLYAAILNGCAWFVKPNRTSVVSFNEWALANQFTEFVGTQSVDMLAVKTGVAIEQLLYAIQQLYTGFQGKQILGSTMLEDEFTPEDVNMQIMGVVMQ

HCoV-229E 3CLpro, sequence (P0C6X1 2966-3267): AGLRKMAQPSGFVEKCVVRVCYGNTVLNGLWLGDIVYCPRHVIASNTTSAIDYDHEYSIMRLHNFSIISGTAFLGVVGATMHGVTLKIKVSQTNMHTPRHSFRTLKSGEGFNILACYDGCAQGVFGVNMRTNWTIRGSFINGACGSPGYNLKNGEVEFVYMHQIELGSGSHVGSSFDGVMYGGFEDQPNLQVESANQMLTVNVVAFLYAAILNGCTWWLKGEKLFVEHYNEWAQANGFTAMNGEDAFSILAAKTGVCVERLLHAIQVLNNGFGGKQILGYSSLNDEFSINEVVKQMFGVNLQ

Row | SMILES | pIC50 [1] | pIC50 [2] | pIC50 [3] | pIC50 [4]
1 | CC(C)(C)[C@H](NC(=O)C(Cl)Cl)C(=O)N1C[C@@H]2CCC[C@@H]2[C@H]1C(=O)NN(C[C@@H]1CCNC1=O)C(=O)[C@H](F)Cl [Example 70, N-[(1S)-1-[(3S,3aS,6aR)-3-[[[(2R)-2-chloro-2-fluoro-acetyl]-[[(3S)-2-oxopyrrolidin-3-yl]methyl]amino]carbamoyl]-3,3a,4,5,6,6a-hexahydro-1H-cyclopenta[c]pyrrole-2-carbonyl]-2,2-dimethyl-propyl]-2,2-dichloro-acetamide] | 7.52 | 7.80 | 8.15 | 7.00
2 | CC(C)(C)[C@H](NC(=O)C(F)(F)C(F)(F)F)C(=O)N1C[C@@H]2CCC[C@@H]2[C@H]1C(=O)NN(C[C@@H]1CCNC1=O)C(=O)[C@H](F)Cl [Example 71, N-[(1S)-1-[(3S,3aS,6aR)-3-[[[(2R)-2-chloro-2-fluoro-acetyl]-[[(3S)-2-oxopyrrolidin-3-yl]methyl]amino]carbamoyl]-3,3a,4,5,6,6a-hexahydro-1H-cyclopenta[c]pyrrole-2-carbonyl]-2,2-dimethyl-propyl]-2,2,3,3,3-pentafluoro-propanamide] | 7.72 | 8.00 | 8.15 | 7.39
3 | CC[C@H](NC(=O)C(F)(F)F)C(=O)N1C[C@@H]2CCC[C@@H]2[C@H]1C(=O)NN(C[C@@H]1CCNC1=O)C(=O)[C@H](F)Cl [Example 72, N-[(1S)-1-[(3S,3aS,6aR)-3-[[[(2R)-2-chloro-2-fluoro-acetyl]-[[(3S)-2-oxopyrrolidin-3-yl]methyl]amino]carbamoyl]-3,3a,4,5,6,6a-hexahydro-1H-cyclopenta[c]pyrrole-2-carbonyl]propyl]-2,2,2-trifluoro-acetamide] | 7.64 | 7.96 | 8.10 | 7.24
4 | CC[C@@H](C)[C@H](NC(=O)C(F)(F)F)C(=O)N1C[C@@H]2CCC[C@@H]2[C@H]1C(=O)NN(C[C@@H]1CCNC1=O)C(=O)[C@H](F)Cl [Example 73, N-[(1S,2R)-1-[(3S,3aS,6aR)-3-[[[(2R)-2-chloro-2-fluoro-acetyl]-[[(3S)-2-oxopyrrolidin-3-yl]methyl]amino]carbamoyl]-3,3a,4,5,6,6a-hexahydro-1H-cyclopenta[c]pyrrole-2-carbonyl]-2-methyl-butyl]-2,2,2-trifluoro-acetamide] | 7.40 | 7.92 | 7.48 | 6.96
5 | O=C1NCC[C@H]1CN(NC(=O)[C@@H]1[C@H]2CCC[C@H]2CN1C(=O)[C@@H](NC(=O)C(F)(F)F)C1CCC1)C(=O)[C@H](F)Cl [Example 74, N-[(1S)-2-[(3S,3aS,6aR)-3-[[[(2R)-2-chloro-2-fluoro-acetyl]-[[(3S)-2-oxopyrrolidin-3-yl]methyl]amino]carbamoyl]-3,3a,4,5,6,6a-hexahydro-1H-cyclopenta[c]pyrrol-2-yl]-1-cyclobutyl-2-oxo-ethyl]-2,2,2-trifluoro-acetamide] | 6.93 | 7.35 | 8.15 | 6.45
6 | C[C@H](NC(=O)C(F)(F)F)C(=O)N1C[C@@H]2CCC[C@@H]2[C@H]1C(=O)NN(C[C@@H]1CCNC1=O)C(=O)[C@H](F)Cl [Example 75, N-[(1S)-2-[(3S,3aS,6aR)-3-[[[(2R)-2-chloro-2-fluoro-acetyl]-[[(3S)-2-oxopyrrolidin-3-yl]methyl]amino]carbamoyl]-3,3a,4,5,6,6a-hexahydro-1H-cyclopenta[c]pyrrol-2-yl]-1-methyl-2-oxo-ethyl]-2,2,2-trifluoro-acetamide] | 7.48 | 7.92 | 7.92 | 7.08
7 | CC[C@@H](C)[C@H](NC(=O)C(C)(F)F)C(=O)N1C[C@@H]2CCC[C@@H]2[C@H]1C(=O)NN(C[C@@H]1CCNC1=O)C(=O)[C@H](F)Cl [Example 76, N-[(1S,2R)-1-[(3S,3aS,6aR)-3-[[[(2R)-2-chloro-2-fluoro-acetyl]-[[(3S)-2-oxopyrrolidin-3-yl]methyl]amino]carbamoyl]-3,3a,4,5,6,6a-hexahydro-1H-cyclopenta[c]pyrrole-2-carbonyl]-2-methyl-butyl]-2,2-difluoro-propanamide] | 7.06 | 7.82 | 8.10 | 6.71
8 | CCC(CC)[C@H](NC(=O)C(F)(F)F)C(=O)N1C[C@@H]2CCC[C@@H]2[C@H]1C(=O)NN(C[C@@H]1CCNC1=O)C(=O)[C@H](F)Cl [Example 77, N-[(1S)-1-[(3S,3aS,6aR)-3-[[[(2R)-2-chloro-2-fluoro-acetyl]-[[(3S)-2-oxopyrrolidin-3-yl]methyl]amino]carbamoyl]-3,3a,4,5,6,6a-hexahydro-1H-cyclopenta[c]pyrrole-2-carbonyl]-2-ethyl-butyl]-2,2,2-trifluoro-acetamide] | 7.55 | 7.92 | 8.15 | 7.16
9 | CCC[C@H](NC(=O)C(F)(F)F)C(=O)N1C[C@@H]2CCC[C@@H]2[C@H]1C(=O)NN(C[C@@H]1CCNC1=O)C(=O)[C@H](F)Cl [Example 78, N-[(1S)-1-[(3S,3aS,6aR)-3-[[[(2R)-2-chloro-2-fluoro-acetyl]-[[(3S)-2-oxopyrrolidin-3-yl]methyl]amino]carbamoyl]-3,3a,4,5,6,6a-hexahydro-1H-cyclopenta[c]pyrrole-2-carbonyl]butyl]-2,2,2-trifluoro-acetamide] | 7.64 | 8.00 | 8.05 | 7.24
10 | CC[C@H](C)[C@H](NC(=O)C1(F)CC1)C(=O)N1C[C@@H]2CCC[C@@H]2[C@H]1C(=O)NN(C[C@@H]1CCNC1=O)C(=O)[C@H](F)Cl [Example 79, N-[(1S,2S)-1-[(3S,3aS,6aR)-3-[[[(2R)-2-chloro-2-fluoro-acetyl]-[[(3S)-2-oxopyrrolidin-3-yl]methyl]amino]carbamoyl]-3,3a,4,5,6,6a-hexahydro-1H-cyclopenta[c]pyrrole-2-carbonyl]-2-methyl-butyl]-1-fluoro-cyclopropanecarboxamide] | 7.41 | 7.96 | 8.15 | 6.94
11 | CC[C@H](C)[C@H](NC(=O)c1ccccc1)C(=O)N1C[C@@H]2CCC[C@@H]2[C@H]1C(=O)NN(C[C@@H]1CCNC1=O)C(=O)[C@H](F)Cl [Example 80, N-[(1S,2S)-1-[(3S,3aS,6aR)-3-[[[(2R)-2-chloro-2-fluoro-acetyl]-[[(3S)-2-oxopyrrolidin-3-yl]methyl]amino]carbamoyl]-3,3a,4,5,6,6a-hexahydro-1H-cyclopenta[c]pyrrole-2-carbonyl]-2-methyl-butyl]benzamide] | 7.70 | 7.96 | 8.00 | 7.24
12 | CC[C@H](C)[C@H](NC(C)=O)C(=O)N1C[C@@H]2CCC[C@@H]2[C@H]1C(=O)NN(C[C@@H]1CCNC1=O)C(=O)[C@H](F)Cl [Example 81, N-[(1S,2S)-1-[(3S,3aS,6aR)-3-[[[(2R)-2-chloro-2-fluoro-acetyl]-[[(3S)-2-oxopyrrolidin-3-yl]methyl]amino]carbamoyl]-3,3a,4,5,6,6a-hexahydro-1H-cyclopenta[c]pyrrole-2-carbonyl]-2-methyl-butyl]acetamide] | 7.35 | 7.82 | 8.05 | 7.03
13 | CC(C)(C)[C@H](NC(=O)C1(F)CC1)C(=O)N1C[C@@H]2CCC[C@@H]2[C@H]1C(=O)NN(C[C@@H]1CCNC1=O)C(=O)[C@H](F)Cl [Example 82, N-[(1S)-1-[(3S,3aS,6aR)-3-[[[(2R)-2-chloro-2-fluoro-acetyl]-[[(3S)-2-oxopyrrolidin-3-yl]methyl]amino]carbamoyl]-3,3a,4,5,6,6a-hexahydro-1H-cyclopenta[c]pyrrole-2-carbonyl]-2,2-dimethyl-propyl]-1-fluoro-cyclopropanecarboxamide] | 7.48 | 7.92 | 8.10 | 7.08
14 | CC(C)(C)[C@H](NC(=O)C1(F)CC1)C(=O)N1C[C@H]2[C@@H]([C@H]1C(=O)NN(C[C@@H]1CCNC1=O)C(=O)[C@H](F)Cl)C2(C)C [Example 83, N-[(1S)-1-[(1R,2S,5S)-2-[[[(2R)-2-chloro-2-fluoro-acetyl]-[[(3S)-2-oxopyrrolidin-3-yl]methyl]amino]carbamoyl]-6,6-dimethyl-3-azabicyclo[3.1.0]hexane-3-carbonyl]-2,2-dimethyl-propyl]-1-fluoro-cyclopropanecarboxamide] | 7.51 | 8.00 | 8.05 | 7.01
15 | CC(F)(F)C(=O)N[C@H](C(=O)N1C[C@H]2[C@@H]([C@H]1C(=O)NN(C[C@@H]1CCNC1=O)C(=O)[C@@H](F)Cl)C2(C)C)C(C)(C)C [Example 85, N-[(1S)-1-[(1R,2S,5S)-2-[[[(2S)-2-chloro-2-fluoro-acetyl]-[[(3S)-2-oxopyrrolidin-3-yl]methyl]amino]carbamoyl]-6,6-dimethyl-3-azabicyclo[3.1.0]hexane-3-carbonyl]-2,2-dimethyl-propyl]-2,2-difluoro-propanamide] | 7.68 | 7.92 | 7.92 | 7.16
16 | CCC(C)(C)[C@H](NC(=O)C(F)(F)F)C(=O)N1C[C@H]2[C@@H]([C@H]1C(=O)NN(C[C@@H]1CCNC1=O)C(=O)[C@H](F)Cl)C2(C)C [Example 86, N-[(1S)-1-[(1R,2S,5S)-2-[[[(2R)-2-chloro-2-fluoro-acetyl]-[[(3S)-2-oxopyrrolidin-3-yl]methyl]amino]carbamoyl]-6,6-dimethyl-3-azabicyclo[3.1.0]hexane-3-carbonyl]-2,2-dimethyl-butyl]-2,2,2-trifluoro-acetamide] | 7.46 | 7.72 | 8.15 | 7.07

From patent US20250059171A1 (Hoffmann-La Roche Inc., priority 2021, published 2025)
